Measured values as given in US20070292888A1, “Methods for Measuring Enzyme Activities in Cells, Blood, Tumors and Tissues” (GEN-PATH PHARMACEUTICALS, INC., priority 2004, published 2007).

Columns and labels:
[1] = biological target: T1, glucose-6-phosphate dehydrogenase (G6PDH) (Mus musculus, UniProt Q00612); test: Glucose-6-phosphate dehydrogenase activity in tissues of treated mice (fluorescence NADPH assay); type: in vivo; conditions: 11 days i.p. twice per day, various organs
T1 construct: from tissue; host or cells: mouse tumor, blood, brain, heart, kidney, liver, lung, spleen (crude lysates)
Procedure: Blood samples from mice were taken (40 μl whole blood) serially or from mice sacrificed at the end of the experiment. Tissues, such as tumors (e.g. from implantation, xenograft, or arising spontaneously), brain, heart, kidney, liver, lung and spleen were taken and flash frozen in liquid nitrogen or on dry ice and stored in −80° C. until time of assay. Four volumes of cold lysis buffer (20 mM HEPES, pH 7.5, 1 mM EDTA, 0.2 g/l Triton X-100® and 0.2 g/L sodium deoxycholate, supplemented with 1 mM DTT and 1 mM PMSF just before use) were added to the blood, which was dissolved by vortexing. For blood that was frozen before coagulation, a clear lysate was obtained. […]
Each reaction was monitored for the appearance of NADH (for transketolase, alpha-ketoglutarate dehydrogenase, pyruvate dehydrogenase) or NADPH (for glucose-6-phosphate dehydrogenase) at room temperature in a fluorescent plate reader with excitation at 340 nm and emission at 470 nm in kinetic mode. The velocity was determined by the slope of the initial linear range of increasing fluorescence, expressed in fluorescent units (FU)/min. The protein concentration in the lysate was determined using Bradford assays (BioRad) with BSA as a standard. […]
We measured enzyme activity in an expanded panel of tissues from mice treated with N3PT or OxyT for 11 days i.p., twice per day. […]

transketolase (TK) = biological target: T2, transketolase (TK) (Mus musculus, UniProt P40142); test: Transketolase activity in blood, tumors and tissues of treated mice (fluorescence NADH assay); type: in vivo; conditions: 11 days i.p. twice per day
T2 construct: from tissue; host or cells: mouse blood, spleen, tumor, kidney, lung, liver (crude lysates)
T2 sequence (P40142 1-623): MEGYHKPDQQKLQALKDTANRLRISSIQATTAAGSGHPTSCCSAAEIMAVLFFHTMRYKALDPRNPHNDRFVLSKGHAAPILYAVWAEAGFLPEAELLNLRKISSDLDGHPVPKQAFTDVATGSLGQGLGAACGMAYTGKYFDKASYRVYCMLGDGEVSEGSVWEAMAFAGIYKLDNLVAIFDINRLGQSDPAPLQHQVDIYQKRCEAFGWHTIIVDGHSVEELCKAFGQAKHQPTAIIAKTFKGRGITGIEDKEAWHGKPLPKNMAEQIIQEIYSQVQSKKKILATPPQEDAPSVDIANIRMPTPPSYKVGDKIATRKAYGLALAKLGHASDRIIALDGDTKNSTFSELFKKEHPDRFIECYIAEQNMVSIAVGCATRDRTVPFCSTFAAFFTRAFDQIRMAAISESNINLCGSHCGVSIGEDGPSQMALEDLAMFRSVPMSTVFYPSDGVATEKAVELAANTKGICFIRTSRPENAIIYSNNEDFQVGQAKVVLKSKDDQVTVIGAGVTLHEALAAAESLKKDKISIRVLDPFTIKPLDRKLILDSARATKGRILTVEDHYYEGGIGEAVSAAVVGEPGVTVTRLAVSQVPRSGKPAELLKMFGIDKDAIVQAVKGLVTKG
Procedure: Blood samples from mice were taken (40 μl whole blood) serially or from mice sacrificed at the end of the experiment. Tissues, such as tumors (e.g. from implantation, xenograft, or arising spontaneously), brain, heart, kidney, liver, lung and spleen were taken and flash frozen in liquid nitrogen or on dry ice and stored in −80° C. until time of assay. Four volumes of cold lysis buffer (20 mM HEPES, pH 7.5, 1 mM EDTA, 0.2 g/l Triton X-100® and 0.2 g/L sodium deoxycholate, supplemented with 1 mM DTT and 1 mM PMSF just before use) were added to the blood, which was dissolved by vortexing. For blood that was frozen before coagulation, a clear lysate was obtained. If coagulation occurred, homogenization was used as described below for tissue. Tissues were suspended in lysis buffer in 10 ml round bottom tubes and homogenized with PowerGen 125® (Fisher Scientific) for four seconds at highest power while submerged in an ice-water bath. This step was repeated after a few seconds, as necessary. The lysate was used right away or else flash frozen and stored at −80° C. until assay time. Eighty microliters (80 μl) of lysate (containing 5 mg tissue/ml lysate for TK and kGDH, 0.5 mg/ml for G6PDH) were put directly in individual wells of a 96-well clear-bottomed assay plate. Twenty microliters (20 μl) of 5× reaction mix was added to initiate each enzymatic reaction.
Each reaction was monitored for the appearance of NADH (for transketolase, alpha-ketoglutarate dehydrogenase, pyruvate dehydrogenase) or NADPH (for glucose-6-phosphate dehydrogenase) at room temperature in a fluorescent plate reader with excitation at 340 nm and emission at 470 nm in kinetic mode. The velocity was determined by the slope of the initial linear range of increasing fluorescence, expressed in fluorescent units (FU)/min. The protein concentration in the lysate was determined using Bradford assays (BioRad) with BSA as a standard. The enzymatic velocity was normalized by the total protein concentration for inter-sample comparison. To obtain reliable results across samples, similar starting protein concentrations were prepared (within approximately 30%) so that the normalized velocity required only small adjustments. This was achieved by weighing the tissue and putting in lysis buffer so that the suspensions contained the same amount of tissue/ml lysis buffer for all samples.
For TK, 15 μl of 5× assay buffer containing final concentrations of 50 mM HEPES, 40 mM KCl, 2.5 mM MgCl2, 5 mM NaArsenate, 1 mM NAD, 2 unit/ml glyceraldehydes-3-phosphate dehydrogenase (GAPDH) was added to 80 μl of lysate. Reaction kinetics were monitored on a fluorescent plate reader to allow any possible background activity via GAPDH to burn out. Then 5 μl of substrate mix containing final concentrations of 0.5 mM ribose-5-phosphate and 0.5 mM xylulose-5-phosphate was added to initiate the reaction. The reaction kinetics were monitored using a fluorescent plate reader, and the slope of the initial linear range was recorded as the velocity of the reaction (FU/min). See FIG. 1 for the reaction scheme.
To investigate the amount of in vivo enzyme inhibition following treatment with an inhibitor, we administered a single dose of N3PT (100 mg/kg, intraperitoneally [i.p.]) and blood, spleen and brain samples were collected at various times from 0-120 hours after dosing. The enzymatic activities were determined as described in Example 1. TK activity was measured in blood and spleen. Because TK activity in the brain is below the detection limit of the assay, kGDH activity was measured in brain samples. Measurements were taken at various time intervals
We measured enzyme activity in an expanded panel of tissues from mice treated with N3PT or OxyT for 11 days i.p., twice per day. Samples were taken from tumors, blood, brain, heart, kidney, lung and spleen, and TK, kGDH and G6PDH activities were determined as described above.

T1 sequence (Q00612 whole entry): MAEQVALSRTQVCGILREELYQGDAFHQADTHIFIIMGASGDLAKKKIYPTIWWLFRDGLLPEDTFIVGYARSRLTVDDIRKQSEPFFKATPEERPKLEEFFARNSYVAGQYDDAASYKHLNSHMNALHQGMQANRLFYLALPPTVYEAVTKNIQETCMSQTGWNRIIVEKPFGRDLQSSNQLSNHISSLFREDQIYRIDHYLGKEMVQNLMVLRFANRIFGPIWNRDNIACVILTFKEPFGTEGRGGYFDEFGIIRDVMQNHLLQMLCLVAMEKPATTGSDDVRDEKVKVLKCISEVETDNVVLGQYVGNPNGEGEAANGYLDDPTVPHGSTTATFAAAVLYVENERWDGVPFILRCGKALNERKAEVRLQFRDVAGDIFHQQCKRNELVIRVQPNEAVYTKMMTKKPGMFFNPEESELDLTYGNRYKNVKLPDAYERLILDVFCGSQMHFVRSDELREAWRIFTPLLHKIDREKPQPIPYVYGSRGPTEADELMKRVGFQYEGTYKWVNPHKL

Cc1ncc(C[n+]2csc(CCO)c2C)c(=O)[nH]1 [OxyT, oxythiamine]
G6PDH enzymatic activity following treatment [1]: no significant decrease
percent inhibition of TK activity in tumors (transketolase (TK); 100 mg/kg, compared to vehicle control): 40%
liver enzymatic (TK) activity (transketolase (TK); liver): hardly affected
